Reference: ChEMBL document CHEMBL5365413, “Optimizing metabolic stability of phosphodiesterase 5 inhibitors: Discovery of a potent N-(pyridin-3-ylmethyl)quinoline derivative targeting synaptic plasticity” (Bioorg Med Chem Lett, 2023)
Calls of active or inactive are those of the source. The calls are words filed in the database; no cut-off is given here.

Experiments:
[1] = Metabolic stability in human liver microsomes assessed as intrinsic clearance; format: ADME, Microsome
[2] = Metabolic stability in human liver microsomes assessed as half life; format: ADME, Microsome
[3] = Selectivity index, ratio of IC50 for inhibition of PDE6 (unknown origin) to IC50 for inhibition of human recombinant PDE5A1
[4] = target: cGMP-specific 3',5'-cyclic phosphodiesterase (Homo sapiens, UniProt O76074); assay: Inhibition of human recombinant PDE5A1 by fluorescence based assay
[5] = Inhibition of PDE1 (unknown origin) by fluorescent based assay; set-up: species or system Homo sapiens
[6] = Inhibition of PDE2 (unknown origin) by fluorescent based assay; set-up: species or system Homo sapiens
[7] = Inhibition of PDE3 (unknown origin) by fluorescent based assay; set-up: species or system Homo sapiens
[8] = Inhibition of PDE6 (unknown origin) by fluorescent based assay; set-up: species or system Homo sapiens
[9] = Inhibition of PDE8 (unknown origin) by fluorescent based assay; set-up: species or system Homo sapiens
[10] = Inhibition of PDE9 (unknown origin) by fluorescent based assay; set-up: species or system Homo sapiens
[11] = Inhibition of PDE10 (unknown origin) by fluorescent based assay; set-up: species or system Homo sapiens
[12] = Inhibition of PDE11 (unknown origin) by fluorescent enzymatic assay; set-up: species or system Homo sapiens
[13] = Selectivity index, ratio of IC50 for inhibition of PDE1 (unknown origin) to IC50 for inhibition of human recombinant PDE5A1
[14] = Selectivity index, ratio of IC50 for inhibition of PDE2 (unknown origin) to IC50 for inhibition of human recombinant PDE5A1
[15] = Selectivity index, ratio of IC50 for inhibition of PDE3 (unknown origin) to IC50 for inhibition of human recombinant PDE5A1
[16] = Selectivity index, ratio of IC50 for inhibition of PDE4 (unknown origin) to IC50 for inhibition of human recombinant PDE5A1
[17] = Selectivity index, ratio of IC50 for inhibition of PDE7 (unknown origin) to IC50 for inhibition of human recombinant PDE5A1
[18] = Selectivity index, ratio of IC50 for inhibition of PDE8 (unknown origin) to IC50 for inhibition of human recombinant PDE5A1
[19] = Selectivity index, ratio of IC50 for inhibition of PDE9 (unknown origin) to IC50 for inhibition of human recombinant PDE5A1
[20] = Selectivity index, ratio of IC50 for inhibition of PDE10 (unknown origin) to IC50 for inhibition of human recombinant PDE5A1
[21] = Selectivity index, ratio of IC50 for inhibition of PDE11 (unknown origin) to IC50 for inhibition of human recombinant PDE5A1
Phosphodiesterase 4 = Phosphodiesterase 4 (Homo sapiens, UniProt P27815+Q08499+Q07343+Q08493); assay: Inhibition of PDE4 (unknown origin) by fluorescent based assay; format: protein assay
Phosphodiesterase 7 = Phosphodiesterase 7 (Homo sapiens, UniProt Q13946+Q9NP56); assay: Inhibition of PDE7 (unknown origin) by fluorescent based assay; format: protein assay
Hippocampus [22] = assay: Neuroprotective activity against o-Tau perfused mouse hippocampus tissue assessed as restoration of synaptic plasticity by measuring hippocampal […] at 50 nM for 10 min followed by tetanus stimulation and measured for 2 hrs by electrophysiology analysis; format: functional, tissue-based; conditions: time 130.0 min
Hippocampus [23] = assay: Neuroprotective activity against o-Tau perfused mouse hippocampus tissue assessed as restoration of synaptic plasticity by measuring residual potentiation at 50 nM for 10 min followed by tetanus stimulation and measured for 2 hrs by electrophysiology analysis relative to control; format: functional, tissue-based; conditions: time 130.0 min
Hippocampus [24] = assay: Neuroprotective activity against mouse hippocampus tissue assessed as restoration of synaptic plasticity by measuring residual potentiation at 50 nM for 10 min followed by tetanus stimulation and measured for 2 hrs by electrophysiology analysis relative to control; format: functional, tissue-based; conditions: time 130.0 min

COc1ccc(CNc2c(CO)cnc3c(C4CC4)cc(C#N)cc23)cc1Cl
CLH [1]: 80 µL/min/mg
t1/2 [2]: 20.5 min

COc1ncc(CNc2c(CO)cnc3c(C4CC4)cc(C#N)cc23)cc1Cl
CLH [1]: 72 µL/min/mg
t1/2 [2]: 19.5 min
Ratio IC50 [3]: 1.9
IC50 [4]: 0.03 µM
IC50 [5]: Not Active
IC50 [6]: > 10 µM
IC50 [7]: Not Active
IC50 [8]: 0.058 µM
IC50 [9]: Not Active
IC50 [10]: Not Active
IC50 [11]: Not Active
IC50 [12]: Not Active

COc1cc(CNc2c(CO)cnc3c(C4CC4)cc(C#N)cc23)ccn1
CLH [1]: 48 µL/min/mg
t1/2 [2]: 28.8 min
IC50 [4]: 0.18 µM

COc1ccc(CNc2c(CO)cnc3c(C4CC4)cc(C#N)cc23)cn1
CLH [1]: 31 µL/min/mg
t1/2 [2]: 44.6 min
Ratio IC50 [13]: > 500
Ratio IC50 [14]: 9
Ratio IC50 [15]: > 500
Ratio IC50 [16]: > 500
Ratio IC50 [3]: 13
Ratio IC50 [17]: > 500
Ratio IC50 [18]: > 500
Ratio IC50 [19]: > 500
Ratio IC50 [20]: > 500
Ratio IC50 [21]: > 500
IC50 ([5]; read-out: IC50): > 10 µM
IC50 [6]: 0.18 µM
IC50 ([7]; read-out: IC50): > 10 µM
IC50 (Phosphodiesterase 4): > 10 µM
IC50 [8]: 0.26 µM
IC50 (Phosphodiesterase 7): > 10 µM
IC50 ([9]; read-out: IC50): > 10 µM
IC50 ([10]; read-out: IC50): > 10 µM
IC50 ([11]; read-out: IC50): > 10 µM
IC50 ([12]; read-out: IC50): > 10 µM
Activity (Hippocampus [22]): Active
Activity (Hippocampus [23]): Active
Activity (Hippocampus [24]): inactive

CCOC(=O)c1cnc2c(C3CC3)cc(C#N)cc2c1NCc1ccc(OC)nc1
IC50 [4]: 1.3 µM

N#Cc1cc(C2CC2)c2ncc(CO)c(NCc3ccnc(Cl)c3)c2c1
CLH [1]: 80 µL/min/mg
t1/2 [2]: 17.3 min
IC50 [4]: 0.82 µM

[2H]C([2H])(Nc1c(CO)cnc2c(C3CC3)cc(C#N)cc12)c1ccc(OC)c(Cl)c1
CLH [1]: 85 µL/min/mg
t1/2 [2]: 16.4 min
IC50 [4]: 0.005 µM

Cn1ccc2cc(CNc3c(CO)cnc4c(C5CC5)cc(C#N)cc34)ccc21
IC50 [4]: 2.8 µM

COc1cc(CNc2c(CO)cnc3c(C4CC4)cc(C#N)cc23)cc(OC)c1OC
IC50 [4]: 3.4 µM

N#Cc1cc(C2CC2)c2ncc(CO)c(NCc3ccc4c(c3)OCO4)c2c1
CLH [1]: 88 µL/min/mg
t1/2 [2]: 15.7 min
IC50 [4]: 0.19 µM
